According to US12661309B2, “Preparation and efficacy of tooth whitening tablet including SHMP” (The Hershey Company, priority 2018, dated 2026):

Tests used:
[1] = Stain removal (ΔE whitening index) on pre-stained bovine enamel slabs
Procedure: Commercially available bovine enamel slabs were purchased from Theremetrics Inc. The slabs were prepared by immersing the enamel specimens in a staining broth containing coffee, tea and gastric mucin and air-drying the specimens. The gastric mucin (glycoprotein) was added to the straining broth to afford pellicle formation on the enamel surface. This mimics the dental pellicle formed by the glycoproteins present in the saliva. The broth immersion and air-drying procedure was repeated several times up to four days to afford a heavily-stained film containing the pellicle, as shown in FIG. 2.
Six treatments were performed with 3 bovine enamel slabs per treatment (2 medium stained and 1 heavy stained). The following treatment regimen was followed. The pre-stained enamel slabs were suspended in aqueous medium using a thin rod in a plastic container. […]
After the treatment, the solution was emptied and the slab was rinsed with DI water and wiped with paper towel. […] The whiteness index was measured using Xrite spectrophotometer (L*a b) at the end of 28 and 56 cycles or treatments. […]
The term ΔE, known as the whitening index value, represents the change in color difference from baseline measurements. The L* a* b* values were measured by Xrite spectrophotometer which was calibrated every time prior use. […] Using the L* a* b* values, ΔE was calculated according to the formula as shown below. […]
The three phosphate buffer solutions (pH 5.8, 7.0, 8.0) were prepared using 0.2M NaH2PO4 and 0.2M Na2HPO4. […] The L* a* b* measurements were measured by Xrite spectrophotometer and digital images were taken at baseline, 28 cycles and at end of 56 cycles.
Artificial saliva was used as the medium for this example. […] The L* a* b* measurements were measured by Xrite spectrophotometer and digital images were taken at baseline, after 28 cycles and after 56 cycles.
Artificial saliva was used as the medium for Example 4. […] The L* a* b* measurements were measured by Xrite spectrophotometer and digital images were taken at baseline, after 28 treatment cycles and after 56 treatment cycles.

[2] = hydrolyze to form orthophosphates; cited from earlier work

Structure (SMILES) | stain removal, ingredient only vs tableted forms (Codes H, L & D) ([1]; Example 1, specifically heavy stains) | stability in acidic environments [2] | relationship between SHMP concentration and stain removal efficacy ΔE values ([1]; Example 3, 0-8% SHMP tablets, medium stained slabs, artificial saliva) | reduction of whitening efficacy ([1]; Example 3, dropping SHMP level in tablet from 8% to 5%, artificial saliva)
O=P1([O-])OP(=O)([O-])OP(=O)([O-])OP(=O)([O-])OP(=O)([O-])OP(=O)([O-])O1.[Na+].[Na+].[Na+].[Na+].[Na+].[Na+] [Code B, sodium hexametaphosphate] | performed better than tableted forms | – | – | –
O=P1([O-])OP(=O)([O-])OP(=O)([O-])OP(=O)([O-])OP(=O)([O-])OP(=O)([O-])O1.[Na+].[Na+].[Na+].[Na+].[Na+].[Na+] [SHMP, sodium hexametaphosphate] | – | not stable | linear relationship | 32%
